Results reported in the NIST ThermoML archive (doi:10.1021/je8001305).

Assay: xn = mol fraction of the nth substance listed
Conditions: Liquid, Vibrating tube method

CC(C)O [propan-2-ol] + O
Conditions | mass density [kg/m3]
325.1 K, 4598.7 kPa, x1 = 0.2483 | 877.08
325.1 K, 5089.3 kPa, x1 = 0.2483 | 877.36
325.1 K, 5564.2 kPa, x1 = 0.2483 | 877.68
325.1 K, 5954.2 kPa, x1 = 0.2483 | 877.93
325.1 K, 6394.3 kPa, x1 = 0.2483 | 878.21
325.1 K, 6808.5 kPa, x1 = 0.2483 | 878.48
325.1 K, 7288 kPa, x1 = 0.2483 | 878.8
325.1 K, 7782.7 kPa, x1 = 0.2483 | 879.08
325.1 K, 8079.1 kPa, x1 = 0.2483 | 879.34
325.1 K, 8438.9 kPa, x1 = 0.2483 | 879.63
325.1 K, 8828.5 kPa, x1 = 0.2483 | 879.87
325.1 K, 9358.9 kPa, x1 = 0.2483 | 880.18
325.13 K, 29.2 kPa, x1 = 0.7258 | 782.68
325.13 K, 83 kPa, x1 = 0.7258 | 782.69
325.13 K, 268.1 kPa, x1 = 0.7258 | 782.93
325.13 K, 528.3 kPa, x1 = 0.7258 | 783.18
325.13 K, 873.7 kPa, x1 = 0.7258 | 783.5
325.13 K, 1298.6 kPa, x1 = 0.7258 | 783.92
325.13 K, 1709.2 kPa, x1 = 0.7258 | 784.33
325.13 K, 2200.7 kPa, x1 = 0.7258 | 784.79
325.13 K, 2652.1 kPa, x1 = 0.7258 | 785.22
325.13 K, 3101.7 kPa, x1 = 0.7258 | 785.67
325.13 K, 3550.6 kPa, x1 = 0.7258 | 786.11
325.13 K, 4068.3 kPa, x1 = 0.7258 | 786.61
325.13 K, 4579.4 kPa, x1 = 0.7258 | 787.07
325.13 K, 5021.7 kPa, x1 = 0.7258 | 787.49
325.13 K, 5496.1 kPa, x1 = 0.7258 | 787.93
325.13 K, 5972.3 kPa, x1 = 0.7258 | 788.38
325.13 K, 6450.8 kPa, x1 = 0.7258 | 788.82
325.13 K, 6903 kPa, x1 = 0.7258 | 789.24
325.13 K, 7392 kPa, x1 = 0.7258 | 789.7
325.13 K, 7861.1 kPa, x1 = 0.7258 | 790.11
325.13 K, 8322.8 kPa, x1 = 0.7258 | 790.52
325.13 K, 8813.9 kPa, x1 = 0.7258 | 790.98
325.13 K, 9287.4 kPa, x1 = 0.7258 | 791.41
325.13 K, 9829.7 kPa, x1 = 0.7258 | 791.93
350.15 K, 88 kPa, x1 = 0.4939 | 789.82
350.15 K, 161.7 kPa, x1 = 0.4939 | 789.8
350.15 K, 387.8 kPa, x1 = 0.4939 | 790.1
350.15 K, 695.2 kPa, x1 = 0.4939 | 790.45
350.15 K, 1020.8 kPa, x1 = 0.4939 | 790.78
350.15 K, 1400.1 kPa, x1 = 0.4939 | 791.25
350.15 K, 1795.8 kPa, x1 = 0.4939 | 791.61
350.15 K, 2147.1 kPa, x1 = 0.4939 | 791.96
350.15 K, 2497.9 kPa, x1 = 0.4939 | 792.31
350.15 K, 2892.7 kPa, x1 = 0.4939 | 792.74
350.15 K, 3277.9 kPa, x1 = 0.4939 | 793.12
350.15 K, 3611.5 kPa, x1 = 0.4939 | 793.5
350.15 K, 4087.3 kPa, x1 = 0.4939 | 794.01
350.15 K, 4606.7 kPa, x1 = 0.4939 | 794.49
350.15 K, 4955.2 kPa, x1 = 0.4939 | 794.83
350.15 K, 5376 kPa, x1 = 0.4939 | 795.26
350.15 K, 5837.6 kPa, x1 = 0.4939 | 795.69
350.15 K, 6296.4 kPa, x1 = 0.4939 | 796.18
350.15 K, 6886.6 kPa, x1 = 0.4939 | 796.77
350.15 K, 7400.8 kPa, x1 = 0.4939 | 797.28
350.15 K, 7935.6 kPa, x1 = 0.4939 | 797.73
350.15 K, 8400.3 kPa, x1 = 0.4939 | 798.24
350.15 K, 9000.6 kPa, x1 = 0.4939 | 798.68
350.15 K, 9521.2 kPa, x1 = 0.4939 | 799.18
350.18 K, 84.4 kPa, x1 = 0.2483 | 850.19
350.18 K, 220 kPa, x1 = 0.2483 | 850.33
350.18 K, 511 kPa, x1 = 0.2483 | 850.54
350.18 K, 938.8 kPa, x1 = 0.2483 | 850.91
350.18 K, 1369.7 kPa, x1 = 0.2483 | 851.29
350.18 K, 2066.9 kPa, x1 = 0.2483 | 851.75
350.18 K, 2381 kPa, x1 = 0.2483 | 852.09
350.18 K, 2718.1 kPa, x1 = 0.2483 | 852.39
350.18 K, 3107.7 kPa, x1 = 0.2483 | 852.73
350.18 K, 3464.8 kPa, x1 = 0.2483 | 853.04
350.18 K, 3957.6 kPa, x1 = 0.2483 | 853.37
350.18 K, 4346 kPa, x1 = 0.2483 | 853.71
350.18 K, 4781.1 kPa, x1 = 0.2483 | 854.06
350.18 K, 5267.8 kPa, x1 = 0.2483 | 854.49
350.18 K, 5743.8 kPa, x1 = 0.2483 | 854.83
350.18 K, 6196.4 kPa, x1 = 0.2483 | 855.2
350.18 K, 6734.2 kPa, x1 = 0.2483 | 855.63
350.18 K, 7374.9 kPa, x1 = 0.2483 | 856.07
350.18 K, 7999 kPa, x1 = 0.2483 | 856.54
350.18 K, 8630.3 kPa, x1 = 0.2483 | 857.02
350.18 K, 9298.3 kPa, x1 = 0.2483 | 857.54
351.14 K, 93.2 kPa, x1 = 0.7258 | 756.9
351.14 K, 241.5 kPa, x1 = 0.7258 | 757.15
351.14 K, 444.5 kPa, x1 = 0.7258 | 757.34
351.14 K, 822.4 kPa, x1 = 0.7258 | 757.8
351.14 K, 1271.6 kPa, x1 = 0.7258 | 758.33
351.14 K, 1673.9 kPa, x1 = 0.7258 | 758.75
351.14 K, 2070.5 kPa, x1 = 0.7258 | 759.26
351.14 K, 2461.1 kPa, x1 = 0.7258 | 759.66
351.14 K, 2863.4 kPa, x1 = 0.7258 | 760.12
351.14 K, 3280.9 kPa, x1 = 0.7258 | 760.61
351.14 K, 4252.5 kPa, x1 = 0.7258 | 761.65
351.14 K, 4626.4 kPa, x1 = 0.7258 | 762.11
351.14 K, 5075.9 kPa, x1 = 0.7258 | 762.61
351.14 K, 5558.5 kPa, x1 = 0.7258 | 763.09
351.14 K, 5976.2 kPa, x1 = 0.7258 | 763.59
351.14 K, 6439.8 kPa, x1 = 0.7258 | 764.08
351.14 K, 6882.2 kPa, x1 = 0.7258 | 764.57
351.14 K, 7348.6 kPa, x1 = 0.7258 | 765.1
351.14 K, 7809.3 kPa, x1 = 0.7258 | 765.6
351.14 K, 8254 kPa, x1 = 0.7258 | 766.09
351.14 K, 8720.2 kPa, x1 = 0.7258 | 766.63
351.14 K, 9221.3 kPa, x1 = 0.7258 | 767.15
351.14 K, 9714.8 kPa, x1 = 0.7258 | 767.73
351.14 K, 10240 kPa, x1 = 0.7258 | 768.31
